{"source": "patent US4514403A", "about": "“Hydrouracil compounds” (Yoshitomi Pharmaceutical Industries Ltd., priority 1980, dated 1985)", "key": {"Tolerance test": {"assay": "Tolerance test", "assay_type": "in vivo", "conditions": "continuous administration"}, "central nervous system": {"test_system": "central nervous system", "assay": "Activity on central nervous system", "conditions": "in vivo"}, "[1]": {"test_system": "evoked potentials in central nervous system", "assay": "Effect on the various evoked potentials in central nervous system", "assay_type": "in vivo, Male Wistar rats", "parameters": "key to Amplitude of Evoked Responses, VP-COR / Amplitude of Evoked Responses, HIP-AMY / Amplitude of Evoked Responses, HIP-SEP: -: No change; --: No change; (+): Levallorphan antagonism; (-): Levallorphan antagonism", "procedure": "Male Wistar rats, weighing 300-350 g, were used under ethyl ether anesthesia. The trachea and femoral vein were cannulated for artificial respiration and drug injection, respectively. Immobilization of the rat was maintained by gallamine thioethiodide (10 mg/kg) given intravenously every one hours. All wound edges were infiltration with carbocaine hydrochloride. The experiments began after at least 2 hours had elapsed from discontinuance of ether anesthesia. The COR (somatosensory cortex) evoked potentials by VP (neucleus ventralis posterior thalamus) stimulation (VP - COR evoked potential) were recorded from somatosensory cortex, through a silver electrode applied directly to the cortex. In order to record VP and MRF (midbrain reticular formation) evoked potentials by sciatic nerve stimulation or AMY (amygdala) and SEP (septum) evoked potentials by HIP (hippocampus) stimulation, bipolar stainless steel electrodes were stereotaxically placed into the VP, MRF, AMY, SEP and HIP. The stimuli were delivered to various sites every 2 seconds from a stimulation and consisted of 0.1 msec rectangular pulses (twice threshold intensity). The evoked responses were visualized on an oscilloscope. All records were made up of 20 superimposed tracings."}, "[2]": {"conditions": "rat, in vivo"}, "[3]": {"conditions": "rat, in vivo", "remark": "listed apart in the source"}, "in vivo": {"assay": "in vivo", "conditions": "rat"}, "Hot plate test": {"assay": "Hot plate test", "conditions": "Rattus norvegicus, sc, read-out: Hot Plate Test ED50"}, "Mouse jumping test": {"assay": "Mouse jumping test", "conditions": "administration at a lethal dose"}, "Electric stimuli test": {"assay": "Electric stimuli test", "conditions": "Mus musculus, read-out: Electric Stimuli Test ED50"}, "[4]": {"assay": "Phenylquinone writhing test", "conditions": "for ED50: Mus musculus, read-out: Phenylquinone Writhing Test ED50"}, "[5]": {"assay": "Tooth pulp nociception test"}, "[6]": {"assay": "Bradykinin nociception test", "conditions": "for ED50: Rattus norvegicus, read-out: Bradykinin Nociception Test ED50"}, "[7]": {"assay": "Analgesic activity (overall)"}, "[8]": {"assay": "Antagonism by levallorphan in electric stimuli test", "conditions": "electric stimuli test in mice; levallorphan (narcotic antagonist)"}, "[9]": {"conditions": "calculated from inhibition (%) in a low dose"}}, "note": "Counter-ions that a name gives are not always drawn."}
{"molecule": "CN1C(=O)CCN(C2CCN(CC=Cc3ccccc3)CC2)C1=O", "note": "[Test compound A, 1-(1-cinnamyl-4-piperidyl)-3-methyl-hydrouracil hydrochloride]", "values": [{"measurement": "cross tolerance against codeine", "setting": "Tolerance test", "result": "did not show a cross tolerance against codeine"}, {"measurement": "tolerance (decrease of effects)", "setting": "Tolerance test", "result": "did not cause a significant decrease of effects"}, {"measurement": "muscle relaxant activity", "setting": "central nervous system", "result": "weak"}, {"measurement": "reserpine potentiating activity", "setting": "central nervous system", "result": "weak"}, {"measurement": "suppression of spontaneous locomotor activity", "setting": "central nervous system", "result": "weak"}, {"measurement": "levallorphan antagonism of VP - COR response", "setting": "[1]", "result": "levallorphan did not antagonize the response"}, {"measurement": "Amplitude of Evoked Responses, HIP-AMY", "setting": "[1]; 5 mg/kg i.v.", "result": "--"}, {"measurement": "Amplitude of Evoked Responses, HIP-SEP", "setting": "[1]; 5 mg/kg i.v.", "result": "--"}, {"measurement": "Amplitude of Evoked Responses, VP-COR", "setting": "[1]; 5 mg/kg i.v.", "result": "--"}, {"measurement": "Amplitude of Evoked Responses, HIP-AMY", "setting": "[1]; 10 mg/kg i.v.", "result": "--"}, {"measurement": "Amplitude of Evoked Responses, HIP-SEP", "setting": "[1]; 10 mg/kg i.v.", "result": "--"}, {"measurement": "Amplitude of Evoked Responses, HIP-AMY", "setting": "[1]; 25 mg/kg i.v.", "result": "--"}, {"measurement": "Amplitude of Evoked Responses, HIP-SEP", "setting": "[1]; 25 mg/kg i.v.", "result": "--"}, {"measurement": "HIP - AMY evoked potential", "setting": "[1]; i.v.", "result": "no effect"}, {"measurement": "HIP - SEP evoked potential", "setting": "[1]; i.v.", "result": "no effect"}, {"measurement": "amplitude of the VP - COR evoked potential", "setting": "[1]; i.v.", "result": "reduced the amplitude of the VP - COR evoked potential"}, {"measurement": "body weight reduction", "setting": "[2]", "result": "not reduced"}, {"measurement": "compensatory adjustment against codeine", "setting": "[3]", "result": "had not compensatory adjustment against codeine"}, {"measurement": "LD50", "setting": "in vivo; ip", "result": 150, "unit": "mg/kg"}, {"measurement": "LD50", "setting": "in vivo; po", "result": 450, "unit": "mg/kg"}, {"measurement": "LD50", "setting": "in vivo; sc", "result": 300, "unit": "mg/kg"}, {"measurement": "ED50", "setting": "Hot plate test", "result": 10, "unit": "mg/kg"}, {"measurement": "jumping symptom", "setting": "Mouse jumping test", "result": "did not cause any jumping symptom"}, {"measurement": "ED50", "setting": "AgNO3 arthritis test; Rattus norvegicus, sc, read-out: AgNO3 Arthritis Test ED50", "result": 7, "unit": "mg/kg"}, {"measurement": "Relative potency (Test compound A = 1), AgNO3 Arthritis Test", "setting": "AgNO3 arthritis test; calculated from ED50", "result": 1}, {"measurement": "Relative potency (Test compound A = 1), AgNO3 Arthritis Test", "setting": "AgNO3 arthritis test; [9]", "result": 1}, {"measurement": "Inhibition (%) of Occurrence of Pain", "setting": "AgNO3 arthritis test; rats, 5 mg/kg s.c.", "result": 42, "unit": "%"}, {"measurement": "ED50", "setting": "Electric stimuli test; po", "result": 200, "unit": "mg/kg"}, {"measurement": "ED50", "setting": "Electric stimuli test; sc", "result": 23, "unit": "mg/kg"}, {"measurement": "ED50", "setting": "[4]; po", "result": 17, "unit": "mg/kg"}, {"measurement": "ED50", "setting": "[4]; sc", "result": 1, "unit": "mg/kg"}, {"measurement": "Relative potency (Test compound A = 1), Phenylquinone Writhing Test", "setting": "[4]; calculated from ED50", "result": 1}, {"measurement": "Relative potency (Test compound A = 1), Phenylquinone Writhing Test", "setting": "[4]; [9]", "result": 1}, {"measurement": "Inhibition (%) of Occurrence of Pain", "setting": "[4]; mice, 0.5 mg/kg s.c.", "result": 48, "unit": "%"}, {"measurement": "Relative potency (Test compound A = 1), Tooth Pulp Nociception Test", "setting": "[5]; calculated from ED50", "result": 1}, {"measurement": "Relative potency (Test compound A = 1), Tooth Pulp Nociception Test", "setting": "[5]; [9]", "result": 1}, {"measurement": "increasing rate in threshold", "setting": "[5]; rabbits, 2.5 mg/kg i.v.", "result": 75, "unit": "%"}, {"measurement": "ED50", "setting": "[6]; po", "result": 40, "unit": "mg/kg"}, {"measurement": "ED50", "setting": "[6]; sc", "result": 4, "unit": "mg/kg"}, {"measurement": "Relative potency (Test compound A = 1), Bradykinin Nociception Test", "setting": "[6]; calculated from ED50", "result": 1}, {"measurement": "Relative potency (Test compound A = 1), Bradykinin Nociception Test", "setting": "[6]; [9]", "result": 1}, {"measurement": "Inhibition (%) of Occurrence of Pain", "setting": "[6]; rats, 2.5 mg/kg s.c.", "result": 38, "unit": "%"}, {"measurement": "analgesic activity in a low dose", "setting": "[7]", "result": "stronger than tramadol and pentazocine"}, {"measurement": "Influence of levallorphan on analgesic activity", "setting": "[8]", "result": "did not influence the analgesic activity"}]}
